Measurements published in patent EP4707280A1, “1,4-CINEOLE DERIVATIVE AND INTERMEDIATE THEREOF, HERBICIDE CONTAINING SAID DERIVATIVE AS ACTIVE INGREDIENT, METHOD FOR USING HERBICIDE, AND METHOD FOR PREPARING AGROCHEMICAL COMPOSITION” (HOKKO CHEMICAL INDUSTRY CO., LTD., priority 2023, dated 2024).

Columns and labels:
Type in all cases: in vivo
Lindernia pyxidaria = experiment: Test Example 1: herbicidal effect test by soil application in paddy rice; conditions: 336 h, 120 g active ingredient per 10 ares, applied immediately after sowing, flooded pots, 14 days after application, read-out: weed inhibition rate
Outline: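 Pre-emergence test in puddled, flooded paddy soil (about 3 cm water), 30 seeds per weed sown at 0–1 cm depth in a glass greenhouse. Emulsifiable concentrate diluted in water and dropped onto the pots straight after sowing at 120 g a.i. per 10 ares. Weed inhibition (%) scored at 14 days, in duplicate.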

Scirpus juncoides [1] = experiment: as above; conditions: Schoenoplectiella juncoides, soil, 336 h; 120 g active ingredient per 10 ares; applied immediately after sowing, flooded pots; 14 days after application; read-out: weed inhibition rate
Outline: (§1)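 Paddy soil in Wagner pots (1/10,000 acre), fertilized and puddled; 30 seeds per species sown at 0–1 cm, flooded to ~3 cm, greenhouse. Water-diluted emulsifiable concentrate dropped onto flooded pots right after sowing at 120 g active ingredient per 10 ares.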

[2] = test system: Echinochloa crus-galli var. formosensis; experiment: as above; conditions: Echinochloa crus-galli, soil, 336 h; 120 g active ingredient per 10 ares; applied immediately after sowing, flooded pots; 14 days after application; read-out: weed inhibition rate
Outline: as §1

Digitaria ciliaris [3] = experiment: Test Example 4: herbicidal effect test by stem and leaf treatment in upland field; conditions: Digitaria ciliaris; 120 g per 10 ares; sprayed seven days after sowing, upland soil; 14 days after application; read-out: weed inhibition rate
Digitaria ciliaris [4] = experiment: Test Example 3: herbicidal effect test by soil application in upland field; conditions: Digitaria ciliaris, 120 g per 10 ares, sprayed one day after sowing, 14 days after application, read-out: weed inhibition rate
Outline: (§2)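 Pre-emergence test: seeds mixed into top 1 cm of alluvial loam upland soil in pots; emulsifiable concentrate diluted in water sprayed on soil one day after sowing at 100 L/10 a, 120 g a.i./10 a. Weed inhibition rate (%) scored at 14 days, in duplicate.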

Echinochloa crus-galli = experiment: as above; conditions: Echinochloa crus-galli, 120 g per 10 ares, sprayed one day after sowing, 14 days after application, read-out: weed inhibition rate
Outline: as §2

Scirpus juncoides [5] = experiment: Test Example 5: herbicidal effect test by soil application in paddy rice (low dose); conditions: Schoenoplectiella juncoides, 336 h, 7.5 g per 10 ares, applied immediately after sowing, flooded pots, 14 days after application, read-out: weed inhibition rate
Outline: (§3)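 Pots of puddled, fertilized paddy soil receive 30 seeds per species at 0–1 cm depth and are flooded to about 3 cm. The diluted emulsifiable concentrate is then dropped onto the water, delivering 7.5 g active ingredient per 10 ares. Greenhouse grown; herbicidal effect scored 14 days later, two replicates.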

Chenopodium album = experiment: Test Example 3: herbicidal effect test by soil application in upland field; conditions: 120 g per 10 ares, sprayed one day after sowing, 14 days after application, read-out: weed inhibition rate
Outline: as §2

Monochoria vaginalis [6] = experiment: Test Example 5: herbicidal effect test by soil application in paddy rice (low dose); conditions: Pontederia vaginalis, 336 h, 7.5 g per 10 ares, applied immediately after sowing, flooded pots, 14 days after application, read-out: weed inhibition rate
Outline: as §3

Monochoria vaginalis [7] = experiment: Test Example 6: herbicidal effect test by application during growth period of paddy rice (low dose); conditions: Pontederia vaginalis; 7.5 g per 10 ares; applied seven days after sowing, flooded pots; 14 days after application; read-out: weed inhibition rate
Outline: (§4)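 Paddy-soil pots, flooded ~3 cm after sowing weed seeds at 0-1 cm depth, greenhouse-grown. Seven days after sowing, diluted emulsifiable concentrate applied by dropper at 7.5 g active ingredient per 10 ares. Weed inhibition rate (%) scored 14 days after application, in duplicate.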

Scirpus juncoides [8] = experiment: as above; conditions: Schoenoplectiella juncoides; 7.5 g per 10 ares; applied seven days after sowing, flooded pots; 14 days after application; read-out: weed inhibition rate
Outline: as §4

Amaranthus viridis = experiment: Test Example 3: herbicidal effect test by soil application in upland field; conditions: Amaranthus viridis, 120 g per 10 ares, sprayed one day after sowing, 14 days after application, read-out: weed inhibition rate
Outline: as §2

Cc1ccccc1CO[C@@H]1C[C@]2(C(C)C)O[C@@]1(C)C[C@@H]2Br [1-16, (1S,2R,4R,5S)-5-bromo-1-methyl-2-[(2-methylphenyl)methoxy]-4-isopropyl-7-oxabicyclo[2.2.1]heptane]
≥ 80%: pest or weed control at 1200 g/ha (Lindernia pyxidaria) | pest or weed control at 1200 g/ha (Scirpus juncoides [1]) | pest or weed control at 1200 g/ha [2] | inhibition at 1200 g/ha (Digitaria ciliaris [3]) | inhibition at 1200 g/ha (Digitaria ciliaris [4]) | inhibition at 1200 g/ha (Echinochloa crus-galli)

CC(C)[C@]12C[C@@H](OCc3ccccc3F)[C@](C)(C[C@@H]1Br)O2 [1-19, (1S,2R,4R,5S)-5-bromo-2-[(2-fluorophenyl)methoxy]-1-methyl-4-isopropyl-7-oxabicyclo[2.2.1]heptane]
≥ 80%: pest or weed control at 1200 g/ha (Lindernia pyxidaria) | pest or weed control at 1200 g/ha (Scirpus juncoides [1]) | pest or weed control at 1200 g/ha [2] | inhibition at 75 g/ha (Scirpus juncoides [5]) | inhibition at 1200 g/ha (Digitaria ciliaris [3]) | inhibition at 1200 g/ha (Chenopodium album) | inhibition at 1200 g/ha (Digitaria ciliaris [4]) | inhibition at 1200 g/ha (Echinochloa crus-galli)

CO[C@H]1C[C@]2(C)O[C@@]1(C(C)C)C[C@H]2OCc1ccccc1F [1-156, (1S,2R,4R,5S)-2-((2-fluorobenzyl)oxy)-4-isopropyl-5-methoxy-1-methyl-7-oxabicyclo[2.2.1]heptane]
≥ 80%: pest or weed control at 1200 g/ha (Scirpus juncoides [1]) | pest or weed control at 1200 g/ha [2] | inhibition at 75 g/ha (Monochoria vaginalis [6]) | inhibition at 75 g/ha (Scirpus juncoides [5]) | inhibition at 1200 g/ha (Digitaria ciliaris [3]) | inhibition at 75 g/ha (Monochoria vaginalis [7]) | inhibition at 75 g/ha (Scirpus juncoides [8]) | inhibition at 1200 g/ha (Chenopodium album) | inhibition at 1200 g/ha (Digitaria ciliaris [4]) | inhibition at 1200 g/ha (Amaranthus viridis) | inhibition at 1200 g/ha (Echinochloa crus-galli)

CC(C)[C@]12C[C@@H](OCc3ccccc3F)[C@](C)(C[C@@H]1OCc1ccccc1F)O2 [1-603, (1S,2R,4R,5S)-2,5-bis[(2-fluorophenyl)methoxy]-1-methyl-4-isopropyl-7-oxabicyclo[2.2.1]heptane]
≥ 80%: pest or weed control at 1200 g/ha (Lindernia pyxidaria) | pest or weed control at 1200 g/ha (Scirpus juncoides [1]) | pest or weed control at 1200 g/ha [2] | inhibition at 75 g/ha (Monochoria vaginalis [6]) | inhibition at 1200 g/ha (Digitaria ciliaris [3]) | inhibition at 75 g/ha (Monochoria vaginalis [7]) | inhibition at 1200 g/ha (Chenopodium album) | inhibition at 1200 g/ha (Digitaria ciliaris [4]) | inhibition at 1200 g/ha (Echinochloa crus-galli)

CC(C)[C@]12C[C@@H](OCc3ccccc3C#N)[C@](C)(C[C@@H]1Br)O2 [1-703, 2-[[(1S,2R,4R,5S)-5-bromo-1-methyl-4-isopropyl-7-oxabicyclo[2.2.1]heptan-2-yl]oxymethyl]benzonitrile]
≥ 80%: pest or weed control at 1200 g/ha (Lindernia pyxidaria) | pest or weed control at 1200 g/ha (Scirpus juncoides [1]) | pest or weed control at 1200 g/ha [2] | inhibition at 1200 g/ha (Digitaria ciliaris [3]) | inhibition at 1200 g/ha (Digitaria ciliaris [4]) | inhibition at 1200 g/ha (Amaranthus viridis) | inhibition at 1200 g/ha (Echinochloa crus-galli)

Cc1ccccc1CO[C@@H]1C[C@]2(C(C)C)O[C@@]1(C)C[C@@H]2I [1-741, (1S,2R,4R,5S)-5-iodo-1-methyl-2-[(2-methylphenyl)methoxy]-4-isopropyl-7-oxabicyclo[2.2.1]heptane]
≥ 80%: pest or weed control at 1200 g/ha (Lindernia pyxidaria) | pest or weed control at 1200 g/ha (Scirpus juncoides [1]) | pest or weed control at 1200 g/ha [2] | inhibition at 75 g/ha (Monochoria vaginalis [6]) | inhibition at 75 g/ha (Scirpus juncoides [5]) | inhibition at 1200 g/ha (Digitaria ciliaris [3]) | inhibition at 1200 g/ha (Digitaria ciliaris [4]) | inhibition at 1200 g/ha (Echinochloa crus-galli)

COC1(OC)C[C@]2(C)O[C@@]1(C(C)C)C[C@H]2OCc1ccccc1F [1-935, (1R,4S,5R)-5-((2-fluorobenzyl)oxy)-1-isopropyl-2,2-dimethoxy-4-methyl-7-oxabicyclo[2.2.1]heptane]
≥ 80%: pest or weed control at 1200 g/ha (Lindernia pyxidaria) | pest or weed control at 1200 g/ha (Scirpus juncoides [1]) | pest or weed control at 1200 g/ha [2] | inhibition at 1200 g/ha (Digitaria ciliaris [3]) | inhibition at 1200 g/ha (Digitaria ciliaris [4]) | inhibition at 1200 g/ha (Echinochloa crus-galli)

Cc1cccc(C)c1CO[C@@H]1C[C@]2(C(C)C)O[C@@]1(C)CC2=O [2-5, (1R,4S,5R)-5-((2,6-dimethylbenzyl)oxy)-1-isopropyl-4-methyl-7-oxabicyclo[2.2.1]heptan-2-one]
≥ 80%: pest or weed control at 1200 g/ha (Lindernia pyxidaria) | pest or weed control at 1200 g/ha (Scirpus juncoides [1]) | pest or weed control at 1200 g/ha [2] | inhibition at 75 g/ha (Monochoria vaginalis [6]) | inhibition at 75 g/ha (Scirpus juncoides [5]) | inhibition at 1200 g/ha (Digitaria ciliaris [3]) | inhibition at 1200 g/ha (Digitaria ciliaris [4]) | inhibition at 1200 g/ha (Echinochloa crus-galli)

CC(C)[C@]12C[C@@H](OCc3ccccc3F)[C@](C)(CC1=O)O2 [2-9, (1R,4S,5R)-5-((2-fluorobenzyl)oxy)-1-isopropyl-4-methyl-7-oxabicyclo[2.2.1]heptan-2-one]
≥ 80%: pest or weed control at 1200 g/ha (Scirpus juncoides [1]) | pest or weed control at 1200 g/ha [2] | inhibition at 75 g/ha (Monochoria vaginalis [6]) | inhibition at 75 g/ha (Scirpus juncoides [5]) | inhibition at 1200 g/ha (Digitaria ciliaris [3]) | inhibition at 75 g/ha (Monochoria vaginalis [7]) | inhibition at 75 g/ha (Scirpus juncoides [8]) | inhibition at 1200 g/ha (Chenopodium album) | inhibition at 1200 g/ha (Digitaria ciliaris [4]) | inhibition at 1200 g/ha (Amaranthus viridis) | inhibition at 1200 g/ha (Echinochloa crus-galli)

CC(C)[C@]12C[C@@H](OCc3ccccc3F)[C@](C)(C/C1=N\O)O2 [2-197, (1R,4S,5R,E)-5-((2-fluorobenzyl)oxy)-1-isopropyl-4-methyl-7-oxabicyclo[2.2.1]heptan-2-one oxime]
≥ 80%: pest or weed control at 1200 g/ha (Lindernia pyxidaria) | pest or weed control at 1200 g/ha (Scirpus juncoides [1]) | pest or weed control at 1200 g/ha [2] | inhibition at 75 g/ha (Monochoria vaginalis [6]) | inhibition at 1200 g/ha (Digitaria ciliaris [3]) | inhibition at 75 g/ha (Monochoria vaginalis [7]) | inhibition at 1200 g/ha (Digitaria ciliaris [4]) | inhibition at 1200 g/ha (Amaranthus viridis) | inhibition at 1200 g/ha (Echinochloa crus-galli)

CC(C)[C@]12C[C@@H](OCc3cccc(F)c3)[C@](C)(CC1=O)O2 [2-351, (1R,4S,5R)-5-((3-fluorobenzyl)oxy)-1-isopropyl-4-methyl-7-oxabicyclo[2.2.1]heptan-2-one]
≥ 80%: pest or weed control at 1200 g/ha (Lindernia pyxidaria) | pest or weed control at 1200 g/ha (Scirpus juncoides [1]) | pest or weed control at 1200 g/ha [2] | inhibition at 75 g/ha (Monochoria vaginalis [6]) | inhibition at 75 g/ha (Scirpus juncoides [5]) | inhibition at 1200 g/ha (Digitaria ciliaris [3]) | inhibition at 1200 g/ha (Digitaria ciliaris [4]) | inhibition at 1200 g/ha (Amaranthus viridis) | inhibition at 1200 g/ha (Echinochloa crus-galli)
